The text below walks through data of patent US20250214942A1, “INHIBITORS OF RECEPTOR INTERACTING PROTEIN KINASE I FOR THE TREATMENT OF DISEASE” (Board of Regents, The University of Texas System, priority 2019, published 2025).

The structures appear in SMILES notation.

One experiment concerns human monocytic cell line U937. Kind of experiment: Human U937 cellular necroptosis assay (TNFalpha + z-VAD-FMK, Cell Titer-Glo viability). In kind it is cell-based. Particulars: Homo sapiens, U-937, 22 h, U937 cells, 25 ng/mL human TNFalpha + 25 μM z-VAD-FMK, read-out: hU937 Avg IC50. Summed up: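 Cells resuspended in phenol red-free RPMI with 10% FBS, stimulated with 25 ng/mL human TNFalpha plus 25 μM z-VAD-FMK, then given serially diluted compound for 22 h at 37° C, 5% CO2. Viability by Cell Titer-Glo 2.0 luminescence; IC50 from four-parameter logistic fit, averaged across runs.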
As to `N#Cc1ccc(OCC23CC(C(=O)N4N=CCC4c4cc(F)c(CO)c(F)c4)(C2)C3)nc1` (stereo not drawn) [Example 342, 6-((3-(5-(3,5-difluoro-4-(hydroxymethyl)phenyl)-4,5-dihydro-1H-pyrazole-1-carbonyl)bicyclo[1.1.1]pentan-1-yl)methoxy)nicotinonitrile], the IC50 was 380 nM.
Consider `N#Cc1cnc(OCC23CC(C(=O)N4CC(F)CC4c4cccc(F)c4)(C2)C3)cn1` (stereo not drawn) [Example 283], for which the IC50 amounted to 160 nM.
Same read-out and setting: then `N#Cc1nc(C2CC2)nn1CC12CC(C(=O)N3N=CCC3c3cc(F)cc(F)c3)(C1)C2` (stereo not drawn) [Example 217, 3-cyclopropyl-1-((3-(5-(3,5-difluorophenyl)-4,5-dihydro-1H-pyrazole-1-carbonyl)-bicyclo[1.1.1]pentan-1-yl)-methyl)-1H-1,2,4-triazole-5-carbonitrile], with 99 nM.
On the same count and under the same terms, then `N#Cc1cnc(OCC23CC(C(=O)N4N=CCC4c4cc(F)ccc4F)(C2)C3)cn1` (stereo not drawn) [Example 268, 5-((3-(5-(2,5-difluorophenyl)-4,5-dihydro-1H-pyrazole-1-carbonyl)bicyclo[1.1.1]pentan-1-yl)methoxy)pyrazine-2-carbonitrile], with 3.9 nM; and `Cn1cc(-c2cnc(OCC34CC(C(=O)N5N=CCC5c5cc(F)cc(F)c5)(C3)C4)cn2)cn1` (stereo not drawn) [Example 344, (5-(3,5-difluorophenyl)-4,5-dihydro-1H-pyrazol-1-yl)(3-(((5-(1-methyl-1H-pyrazol-4-yl)pyrazin-2-yl)oxy)methyl)-bicyclo[1.1.1]pentan-1-yl)methanone], with 56 nM.
Still for that read-out and setting: then `N#Cc1ccc2c(cnn2CC23CC(C(=O)N4C[C@H](O)C[C@H]4c4cccc(F)c4)(C2)C3)c1` (single isomer, unassigned) [Example 263], with 9500 nM; and `N#Cc1nc(C2CC2)n(CC23CC(C(=O)N4N=CCC4c4cc(F)cc(F)c4)(C2)C3)n1` (stereo not drawn) [Example 221, 5-cyclopropyl-1-((3-(5-(3,5-difluorophenyl)-4,5-dihydro-1H-pyrazole-1-carbonyl)-bicyclo[1.1.1]pentan-1-yl)-methyl)-1H-1,2,4-triazole-3-carbonitrile], with 992 nM; and `COc1ccc(C(O)C23CC(C(=O)N4N=CCC4c4cc(F)cc(F)c4)(C2)C3)cc1` (stereo not drawn) [Example 231, (5-(3,5-difluorophenyl)-4,5-dihydro-1H-pyrazol-1-yl)(3-(hydroxy(4-methoxyphenyl)-methyl)bicyclo[1.1.1]pentan-1-yl)methanone], with 3040 nM.
`Cc1cc(F)c(C2CC=NN2C(=O)C23CC(Cn4ncc5cc(C#N)ccc54)(C2)C3)cc1F` (stereo not drawn) [Example 236, 1-((3-(5-(2,5-difluoro-4-methylphenyl)-4,5-dihydro-1H-pyrazole-1-carbonyl)-bicyclo[1.1.1]pentan-1-yl)-methyl)-1H-indazole-5-carbonitrile]: the IC50 came out at 3.8 nM.
The same measure, in the same setting: then `Cc1ccc(C2CC=NN2C(=O)C23CC(COc4ccc(C#N)cn4)(C2)C3)cc1F` (stereo not drawn) [Example 272, 6-((3-(5-(3-fluoro-4-methyl-phenyl)-4,5-dihydro-1H-pyrazole-1-carbonyl)bicyclo-[1.1.1]pentan-1-yl)-methoxy)nicotinonitrile], with 24 nM; and `CN(CC12CC(C(=O)N3N=CCC3c3cc(F)cc(F)c3)(C1)C2)c1cnc(C#N)cn1` (stereo not drawn) [Example 206, 5-(((3-(5-(3,5-Difluorophenyl)-4,5-dihydro-1H-pyrazole-1-carbonyl)bicyclo[1.1.1]pentan-1-yl)methyl)(methyl)amino)pyrazine-2-carbonitrile], with 109 nM.
In the case of `Cc1ccc(C2CC=NN2C(=O)C23CC(COc4cnc(C#N)cn4)(C2)C3)c(F)c1` (stereo not drawn) [Example 267, 5-((3-(5-(2-fluoro-4-methyl-phenyl)-4,5-dihydro-1H-pyrazole-1-carbonyl)bicyclo-[1.1.1]pentan-1-yl)methoxy)-pyrazine-2-carbonitrile], the IC50 amounted to 3.8 nM.
Still for that read-out and setting: as for `N#Cc1cnc(OCC23CC(C(=O)N4N=CCC4c4ccccc4Cl)(C2)C3)cn1` (stereo not drawn) [Example 318, 5-((3-(5-(2-chlorophenyl)-4,5-dihydro-1H-pyrazole-1-carbonyl)bicyclo[1.1.1]pentan-1-yl)methoxy)pyrazine-2-carbonitrile], the figure is 55 nM; as for `Cc1nc(OCC23CC(C(=O)N4N=CCC4c4cnc(C#N)cn4)(C2)C3)ccc1F` (stereo not drawn) [Example 313, 5-(1-(3-(((5-fluoro-6-methylpyridin-2-yl)oxy)-methyl)bicyclo[1.1.1]pentane-1-carbonyl)-4,5-dihydro-1H-pyrazol-5-yl)pyrazine-2-carbonitrile], 251 nM; as for `N#Cc1ccc2c(cnn2CC23CC(C(=O)N4N=CCC4c4ccc(F)cc4F)(C2)C3)c1` (stereo not drawn) [Example 240, 1-((3-(5-(2,4-difluorophenyl)-4,5-dihydro-1H-pyrazole-1-carbonyl)bicyclo[1.1.1]pentan-1-yl)methyl)-1H-indazole-5-carbonitrile], 13 nM.
In the case of `N#Cc1ccc(OCC23CC(C(=O)N4N=CCC4c4cccc(C#N)c4)(C2)C3)nc1` (stereo not drawn) [Example 281, 6-((3-(5-(3-cyanophenyl)-4,5-dihydro-1H-pyrazole-1-carbonyl)bicyclo[1.1.1]pentan-1-yl)methoxy)nicotinonitrile], the IC50 amounted to 148 nM.
`N#Cc1cnc(OCC23CC(C(=O)N4N=CCC4c4cnccn4)(C2)C3)cn1` (stereo not drawn) [Example 274, 5-((3-(5-(pyrazin-2-yl)-4,5-dihydro-1H-pyrazole-1-carbonyl)bicyclo[1.1.1]pentan-1-yl)methoxy)pyrazine-2-carbonitrile]: the IC50 worked out at 61 nM.
Regarding `N#Cc1ccc(OCC23CC(C(=O)N4N=CCC4c4cncc(F)c4)(C2)C3)nc1` (stereo not drawn) [Example 285, 6-((3-(5-(5-fluoropyridin-3-yl)-4,5-dihydro-1H-pyrazole-1-carbonyl)bicyclo[1.1.1]-pentan-1-yl)methoxy)-nicotinonitrile], the IC50 was 164 nM.
Same read-out and setting: as for `Cc1ccc(C2CC=NN2C(=O)C23CC(COc4ccc(C#N)cn4)(C2)C3)c(F)c1` (stereo not drawn) [Example 271, 6-((3-(5-(2-fluoro-4-methyl-phenyl)-4,5-dihydro-1H-pyrazole-1-carbonyl)bicyclo-[1.1.1]pentan-1-yl)methoxy)-nicotinonitrile], the figure is 20 nM.
Still for that read-out and setting: then `N#Cc1cnc(OCC23CC(C(=O)N4N=CCC4c4cccc(F)c4F)(C2)C3)cn1` (stereo not drawn) [Example 306, 5-((3-(5-(2,3-difluorophenyl)-4,5-dihydro-1H-pyrazole-1-carbonyl)bicyclo[1.1.1]pentan-1-yl)methoxy)pyrazine-2-carbonitrile], with 6.6 nM; and `COc1cnnc(OCC23CC(C(=O)N4N=CCC4c4cc(F)cc(F)c4)(C2)C3)c1` (stereo not drawn) [Example 329, (5-(3,5-difluorophenyl)-4,5-dihydro-1H-pyrazol-1-yl)(3-(((5-methoxypyridazin-3-yl)-oxy)methyl)bicyclo[1.1.1]-pentan-1-yl)methanone], with 1290 nM.
On to `N#Cc1ccc(OCC23CC(C(=O)N4N=CCC4c4cc(F)c(C5CC5)c(F)c4)(C2)C3)nc1` (stereo not drawn) [Example 339, 6-((3-(5-(4-cyclopropyl-3,5-difluorophenyl)-4,5-dihydro-1H-pyrazole-1-carbonyl)-bicyclo[1.1.1]pentan-1-yl)-methoxy)nicotinonitrile], for which the IC50 came to 453 nM.
Still for that read-out and setting: as for `Cc1cc(F)c(C2CC=NN2C(=O)C23CC(COc4cnc(C#N)cn4)(C2)C3)cc1F` (stereo not drawn) [Example 195, 5-((3-(5-(2,5-Difluoro-4-methylphenyl)-4,5-dihydro-1H-pyrazole-1-carbonyl)bicyclo[1.1.1]pentan-1-yl)methoxy) pyrazine-2-carbonitrile], the figure is 1.5 nM; as for `N#Cc1cncc(C2CC=NN2C(=O)C23CC(COc4cnc(C#N)cn4)(C2)C3)c1` (stereo not drawn) [Example 284, 5-((3-(5-(5-cyanopyridin-3-yl)-4,5-dihydro-1H-pyrazole-1-carbonyl)bicyclo[1.1.1]pentan-1-yl)methoxy)pyrazine-2-carbonitrile], 161 nM.
The same measure, in the same setting: then `Cn1cc(-c2ccc(OCC34CC(C(=O)N5N=CCC5c5cc(F)cc(F)c5)(C3)C4)c(F)c2)cn1` (stereo not drawn) [Example 204, (5-(3,5-Difluorophenyl)-4,5-dihydro-1H-pyrazol-1-yl)(3-((2-fluoro-4-(1-methyl-1H-pyrazol-4-yl)phenoxy)methyl)bicyclo[1.1.1]pentan-1-yl)methanone], with 22 nM; and `N#Cc1ccc2c(cnn2CC23CC(C(=O)N4N=CCC4c4ccc(F)c(F)c4)(C2)C3)c1` (stereo not drawn) [Example 242, 1-((3-(5-(3,4-difluorophenyl)-4,5-dihydro-1H-pyrazole-1-carbonyl)bicyclo[1.1.1]pentan-1-yl)methyl)-1H-indazole-5-carbonitrile], with 20 nM.

Staying with this experiment, now noted: U937 cells, 25 ng/mL human TNFalpha + 25 μM z-VAD-FMK, 22 h; read-out: hU937 Avg IC50.
As to `N#Cc1cnc(OCC23CC(C(=O)NCc4ccccc4F)(C2)C3)cn1` [Example 300, 3-(((5-cyanopyrazin-2-yl)-oxy)methyl)-N-(2-fluoro-benzyl)bicyclo[1.1.1]pentane-1-carboxamide], the IC50 stood at 7420 nM.
